Data reported in ChEMBL document CHEMBL6103627, “(±)-Feionemycin A and Chromonemycins A-D, Rearranged Aromatic Polyketides Uncovered by Type II Polyketide Gene Cluster Expression” (J Nat Prod, 2025).
Where a name gives a salt, the structure may show the parent alone. Values belong to the compound of their own block, whether it stands above or below them.

Experiments:
[1] = Antitumor activity against human L02 cells assessed as inhibition of cell growth by SRB assay; type: toxicity, cell-based
ASPC1 = test: Antitumor activity against human ASPC1 cells assessed as inhibition of cell growth by SRB assay; type: functional, cell-based
NCI-H446 = test: Antitumor activity against human NCI-H446 cells assessed as inhibition of cell growth by SRB assay; type: functional, cell-based
[2] = Antitumor activity against human Cisplatin/etoposide-resistant NCI-H446/EP cells assessed as inhibition of cell growth by SRB assay; type: functional, cell-based
Staphylococcus aureus [3] = test: Antimicrobial activity against methicillin-resistant Staphylococcus aureus assessed as inhibition of microbial growth incubated for 24 hrs by microdilution method; type: functional, organism-based
Staphylococcus aureus [4] = test: Antimicrobial activity against Staphylococcus aureus ATCC 29213 assessed as inhibition of microbial growth incubated for 24 hrs by microdilution method; type: functional, organism-based
MDA-MB-231 = test: Antitumor activity against human MDA-MB-231 cells assessed as inhibition of cell growth by SRB assay; type: functional, cell-based
Bacillus cereus = test: Antimicrobial activity against Bacillus cereus ATCC 4342 assessed as inhibition of microbial growth incubated for 24 hrs by microdilution method; type: functional, organism-based
K562 = test: Antitumor activity against human K562 cells assessed as inhibition cell growth by MTT assay; type: functional, cell-based

SMILES: CC1=CC(=O)c2c(O)cccc2[C@]12Oc1cc(O)cc(C)c1C2=O
IC50 [1]: > 50 µM | IC50 (ASPC1): > 50 µM | Activity (Staphylococcus aureus [3]): Weak_effect | Activity (Staphylococcus aureus [4]): Weak_effect | IC50 (NCI-H446): > 50 µM | IC50 (MDA-MB-231): > 50 µM | IC50 [2]: > 50 µM | Activity (Bacillus cereus): Weak_effect | IC50 (K562): > 50 µM

SMILES: Cc1cc(=O)c2c3c(c(O)cc2o1)[C@](O)(Cc1cc(=O)cc(O)o1)C[C@@H](O)C3
IC50 [1]: > 50 µM | IC50 (ASPC1): > 50 µM | IC50 (NCI-H446): > 50 µM | IC50 (MDA-MB-231): > 50 µM | IC50 [2]: > 50 µM | IC50 (K562): > 50 µM

SMILES: CC1=CC(=O)c2c(O)cccc2[C@@]12Oc1cc(O)cc(C)c1C2=O
IC50 [1]: > 50 µM | IC50 (ASPC1): > 50 µM | Activity (Staphylococcus aureus [3]): Weak_effect | Activity (Staphylococcus aureus [4]): Weak_effect | IC50 (NCI-H446): 2.26 µM | IC50 (MDA-MB-231): > 50 µM | IC50 [2]: < 50 µM | Activity (Bacillus cereus): Weak_effect | IC50 (K562): > 50 µM

SMILES: Cc1cc(=O)c2c(CCCC(=O)Cc3cc(O)cc(=O)o3)cc(O)cc2o1
IC50 [1]: < 50 µM | IC50 (ASPC1): > 50 µM | Activity (Staphylococcus aureus [3]): Weak_effect | Activity (Staphylococcus aureus [4]): Weak_effect | IC50 (NCI-H446): < 50 µM | IC50 (MDA-MB-231): > 50 µM | IC50 [2]: > 50 µM | Activity (Bacillus cereus): Weak_effect | IC50 (K562): > 50 µM

SMILES: Cc1cc(=O)c2c3c(c(O)cc2o1)/C(=C/c1cc(=O)cc(O)o1)C[C@@H](O)C3
IC50 [1]: > 50 µM | IC50 (ASPC1): > 50 µM | IC50 (NCI-H446): > 50 µM | IC50 (MDA-MB-231): > 50 µM | IC50 [2]: > 50 µM | IC50 (K562): > 50 µM

More lines, main results first:

IC50 (ASPC1): 5.91 µM | IC50 (NCI-H446): 0.8 µM
SMILES: COc1cccc2c1C(=O)c1c(O)c3c(c(O)c1C2=O)C[C@@](O)(C(=O)CO)C[C@@H]3O[C@H]1C[C@H](N)[C@H](O)[C@H](C)O1 [DOXORUBICIN HYDROCHLORIDE]
IC50 [1]: 0.33 µM | IC50 [2]: 11.2 µM

IC50 (ASPC1): < 50 µM | IC50 (NCI-H446): > 50 µM | IC50 (MDA-MB-231): > 50 µM | IC50 (K562): > 50 µM
SMILES: Cc1cc(=O)c2c(C/C=C/[C@@H](O)Cc3cc(O)cc(=O)o3)cc(O)cc2o1
IC50 [1]: > 50 µM | IC50 [2]: > 50 µM
